Assay results from US11833160B2, “Ursodeoxycholic acid derivatives as HDAC inhibitors for the treatment of polycystic diseases” (UNIVERSIDAD DEL PAIS VASCO/EUSKAL HERRIKO UNIBERTSITATEA, priority 2017, dated 2023).

How the values were obtained:
[1] = tested on: polycystic human cholangiocytes; test: Intracellular Ca^2+ measurement (Fluo-4 AM); type: cell-based
Excerpt: As described previously [Banales J M et al. Hepatology 2009; Perugorria M J et al. Nature Reviews G&H; Munoz-Garrido P et al. Journal of Hepatology 2015], polycystic (human and rat) cholangiocytes are characterized by a decrease in intracellular Ca^2+ levels, which promotes their proliferation. Furthermore, it has been proven that chronic treatment with UDCA is capable of partially inhibiting the proliferation of polycystic human cholangiocytes through the normalization of intracellular Ca^2+ levels in experimental models [Munoz-Garrido P et al. Journal of Hepatology 2015] and patients [D'Agnolo H M A, et al. Journal of Hepatology 2016] with PLD. […] To that end, the “Fluo-4 AM” (Thermo Fisher Scientific) intracellular Ca^2+ measurement method was used. A Ca^2+ ionophore (i.e., A23187, Sigma) was used as positive control.

human HDAC11 = biological target: T1, human HDAC11 (Homo sapiens, UniProt Q96DB2); test: HDAC11 enzymatic activity assay (fluorogenic peptide); type: biochemical; settings: 10-dose, 3-fold serial dilution, triplicate
T1 construct: GST (N); purchased BioMol SE-560; host or cells: baculovirus expression system
T1 sequence (Q96DB2 1-347): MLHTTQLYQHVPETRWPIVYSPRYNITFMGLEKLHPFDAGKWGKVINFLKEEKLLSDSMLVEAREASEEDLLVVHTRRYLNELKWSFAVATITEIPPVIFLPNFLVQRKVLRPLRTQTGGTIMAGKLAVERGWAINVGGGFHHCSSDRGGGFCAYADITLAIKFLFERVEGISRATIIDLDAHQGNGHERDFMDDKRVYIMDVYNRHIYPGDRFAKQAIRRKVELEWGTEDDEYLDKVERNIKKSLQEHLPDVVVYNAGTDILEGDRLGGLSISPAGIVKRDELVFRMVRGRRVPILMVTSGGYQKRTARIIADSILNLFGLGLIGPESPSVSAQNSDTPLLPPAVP
Experimental: (§1) Peptide substrates: all HDAC assays were performed using acetylated peptide substrates labeled with 7-amino-4-methylcoumarin (AMC): • Substrate for isoforms HDAC1, 2, 3, 6, 10, 11, and HeLa nuclear extract assays: acetylated fluorogenic peptide from p53 residues 379-382 (RHKKAc). • Substrate for isoforms HDAC4, 5, 7, 9: fluorogenic Boc-L-Lys (s-trifluoroacetyl)-AMC. • Substrate for HDAC8 assays: acetylated fluorogenic peptide from p53 residues 379-382 (RHKAcKAc).
(§2) 50 μl of peptide substrate (see “peptide substrates” section above) and an optimal concentration of the corresponding enzyme (see “enzymes” section above) in the assay buffer at a final DMSO concentration of 1% were incubated in the presence of gradient concentrations of inhibitors (10-dose IC50 mode with 3-fold serial dilution) at 30° C. for 2 hours. The reactions were carried out in a 96-well microplate for fluorometry in a 50 μl reaction volume. After the deacetylation reaction, Fluor-de-Lys-Developer (BioMol Cat. #KI-105) was added to each well to digest the deacetylated substrate, thereby producing the fluorescent signal. The reaction was carried out for 45 minutes at 30° C. with 5% CO2; the fluorescent signal was then measured using an excitation wavelength of 360 nm and an emission wavelength of 460 nm in a microplate-reading fluorometer (GeminiXS, Molecular Devices, Sunnyvale, CA). […]

human HDAC1 = biological target: T2, human HDAC1 (Homo sapiens, UniProt Q13547); test: HDAC1 enzymatic activity assay (fluorogenic peptide); type: biochemical; settings: 10-dose, 3-fold serial dilution, triplicate
T2 construct: GST (C); purchased BioMol SE-456; host or cells: baculovirus / Sf9 cells
T2 sequence (Q13547 whole entry): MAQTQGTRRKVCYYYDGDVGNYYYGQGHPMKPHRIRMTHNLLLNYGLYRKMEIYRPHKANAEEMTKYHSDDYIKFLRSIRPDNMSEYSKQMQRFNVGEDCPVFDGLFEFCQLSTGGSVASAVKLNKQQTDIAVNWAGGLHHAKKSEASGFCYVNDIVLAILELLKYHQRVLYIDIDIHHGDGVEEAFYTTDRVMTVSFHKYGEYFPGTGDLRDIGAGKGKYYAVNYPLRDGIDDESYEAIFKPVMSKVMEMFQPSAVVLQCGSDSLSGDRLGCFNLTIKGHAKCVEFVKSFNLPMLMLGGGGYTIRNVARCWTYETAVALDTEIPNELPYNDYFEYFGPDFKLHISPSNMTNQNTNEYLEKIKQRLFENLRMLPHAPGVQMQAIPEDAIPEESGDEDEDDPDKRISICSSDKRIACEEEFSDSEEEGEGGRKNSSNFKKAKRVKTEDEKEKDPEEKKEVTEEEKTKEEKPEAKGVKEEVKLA
Experimental: as §1
(§3) 50 μl of peptide substrate (see “peptide substrates” section above) and an optimal concentration of the corresponding enzyme (see “enzymes” section above) in the assay buffer at a final DMSO concentration of 1% were incubated in the presence of gradient concentrations of inhibitors (10-dose IC50 mode with 3-fold serial dilution) at 30° C. for 2 hours. The reactions were carried out in a 96-well microplate for fluorometry in a 50 μl reaction volume. After the deacetylation reaction, Fluor-de-Lys-Developer (BioMol Cat. #KI-105) was added to each well to digest the deacetylated substrate, thereby producing the fluorescent signal. The reaction was carried out for 45 minutes at 30° C. with 5% CO2; the fluorescent signal was then measured using an excitation wavelength of 360 nm and an emission wavelength of 460 nm in a microplate-reading fluorometer (GeminiXS, Molecular Devices, Sunnyvale, CA). A curve of deacetylated standard (Biomol, Cat. #KI-142; made from 100 μM with 1:2 dilution and 10 doses, 6 μl) allowed the conversion of the fluorescent signal into micromoles of deacetylated product. All experiments were performed in triplicate. The IC50s were calculated by fitting the experimental data to dose-response curve. DMSO was used as negative control; Trichostatin A (Biomol Cat. #GR-309) was used as positive control inhibitor.
(§4) Enzymatic activity assays were carried out in 11 HDAC enzymes, including HDAC6.

human HDAC3/NcoR2 = biological target: T3, human HDAC3/NcoR2 (Homo sapiens, UniProt O15379); test: HDAC3 enzymatic activity assay (fluorogenic peptide); type: biochemical; settings: 10-dose, 3-fold serial dilution, triplicate
T3 construct: human HDAC3 complex, full length with His C-terminal tag, MW=49.7 kDa; His (C); purchased BioMol SE-507; host or cells: baculovirus expression system
T3 sequence (O15379 whole entry): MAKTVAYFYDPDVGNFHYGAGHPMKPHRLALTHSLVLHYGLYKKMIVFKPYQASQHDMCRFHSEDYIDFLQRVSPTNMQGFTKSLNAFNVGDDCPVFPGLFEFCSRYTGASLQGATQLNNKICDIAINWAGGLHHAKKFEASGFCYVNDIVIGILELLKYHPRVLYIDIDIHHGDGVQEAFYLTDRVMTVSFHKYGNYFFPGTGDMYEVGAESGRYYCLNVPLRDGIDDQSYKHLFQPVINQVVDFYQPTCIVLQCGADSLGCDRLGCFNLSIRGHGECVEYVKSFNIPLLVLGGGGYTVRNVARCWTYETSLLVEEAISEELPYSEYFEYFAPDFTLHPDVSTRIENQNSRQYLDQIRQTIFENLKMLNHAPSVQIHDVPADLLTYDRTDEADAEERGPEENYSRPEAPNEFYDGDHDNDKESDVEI
T3 sequence (Q9Y618 395-489 partner limits assumed): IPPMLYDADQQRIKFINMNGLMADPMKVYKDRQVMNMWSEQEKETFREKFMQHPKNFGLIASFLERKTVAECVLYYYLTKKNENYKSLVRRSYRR
Experimental: as §1, §2

human HDAC10 = biological target: T4, human HDAC10 (Homo sapiens, UniProt Q969S8); test: HDAC10 enzymatic activity assay (fluorogenic peptide); type: biochemical; settings: 10-dose, 3-fold serial dilution, triplicate
T4 sequence (Q969S8 1-631): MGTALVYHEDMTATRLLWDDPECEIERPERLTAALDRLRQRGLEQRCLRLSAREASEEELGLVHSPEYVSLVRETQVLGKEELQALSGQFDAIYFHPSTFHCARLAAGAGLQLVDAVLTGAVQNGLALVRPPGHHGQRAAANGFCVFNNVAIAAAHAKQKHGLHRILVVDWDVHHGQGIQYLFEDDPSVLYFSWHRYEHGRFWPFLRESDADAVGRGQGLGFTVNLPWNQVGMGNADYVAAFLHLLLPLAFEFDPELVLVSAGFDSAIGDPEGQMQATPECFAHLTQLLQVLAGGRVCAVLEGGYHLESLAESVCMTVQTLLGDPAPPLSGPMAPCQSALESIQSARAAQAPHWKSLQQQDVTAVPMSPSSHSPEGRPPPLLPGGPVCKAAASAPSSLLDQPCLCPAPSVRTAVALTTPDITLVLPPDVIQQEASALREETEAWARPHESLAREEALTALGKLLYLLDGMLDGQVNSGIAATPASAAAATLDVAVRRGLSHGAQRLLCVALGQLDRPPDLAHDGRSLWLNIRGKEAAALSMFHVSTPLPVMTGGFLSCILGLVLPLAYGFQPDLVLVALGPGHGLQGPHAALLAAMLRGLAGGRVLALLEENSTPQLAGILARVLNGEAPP
Experimental: as §1, §2

human HDAC8 = biological target: T5, human HDAC8 (Homo sapiens, UniProt Q9BY41); test: HDAC8 enzymatic activity assay (fluorogenic peptide); type: biochemical; settings: 10-dose, 3-fold serial dilution, triplicate
T5 construct: purchased BioMol SE-145; host or cells: E. coli
T5 sequence (Q9BY41 1-377): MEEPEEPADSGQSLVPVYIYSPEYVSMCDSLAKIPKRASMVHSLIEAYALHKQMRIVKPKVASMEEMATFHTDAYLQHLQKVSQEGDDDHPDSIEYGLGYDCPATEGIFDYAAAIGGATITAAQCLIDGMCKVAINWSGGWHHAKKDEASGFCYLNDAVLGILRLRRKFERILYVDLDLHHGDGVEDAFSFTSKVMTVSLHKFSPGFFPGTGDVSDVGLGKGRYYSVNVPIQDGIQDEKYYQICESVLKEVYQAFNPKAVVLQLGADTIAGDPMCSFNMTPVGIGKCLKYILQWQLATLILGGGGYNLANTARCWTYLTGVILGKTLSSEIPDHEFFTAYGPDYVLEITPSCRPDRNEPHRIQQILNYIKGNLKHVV
Experimental: as §1, §3, §4

| Compound | intracellular Ca^2+ levels [1] | IC50 (human HDAC11) | IC50 (human HDAC1) | IC50 (human HDAC3/NcoR2) | IC50 (human HDAC10) | IC50 (human HDAC8) |
| --- | --- | --- | --- | --- | --- | --- |
| C[C@H](CCC(=O)NCc1ccc(C(=O)NO)cc1)[C@H]1CC[C@H]2[C@@H]3[C@@H](O)C[C@@H]4C[C@H](O)CC[C@]4(C)[C@H]3CC[C@]12C [Compound Ia] | increasing intracellular Ca^2+ levels | 2.33 µM | 10.1 µM | 8.37 µM | 24.5 µM | 0.894 µM |
| C[C@H](CCC(=O)NCC(=O)NCc1ccc(C(=O)NO)cc1)[C@H]1CC[C@H]2[C@@H]3[C@@H](O)C[C@@H]4C[C@H](O)CC[C@]4(C)[C@H]3CC[C@]12C [Ib, 4-((2-((R)-4 ((3R,5S,7S,8R,9S,10S,13R,14S,17R)-3,7-dihydroxy-10,13-dimethylhexadecahydro-1H-cyclopenta[a]phenanthren-17-yl)pentanamide)acetamido)methyl)-N-hydroxybenzamide] | increasing intracellular Ca^2+ levels | 2.56 µM | 9.01 µM | 9.99 µM | 21.8 µM | 0.615 µM |
